Source: ChEMBL document CHEMBL4308841, “Synthesis, in vitro antiproliferative activity, and kinase inhibitory effects of pyrazole-containing diarylureas and diarylamides” (Eur J Med Chem, 2018)

Assays:
NCI/ADR-RES [1] = assay: Growth inhibition of human NCI/ADR-RES cells assessed as cell growth at 0.01 uM incubated for 48 hrs by sulforhodamine B assay relative to control; format: functional; details: read-out: Activity
CAKI-1 = assay: Growth inhibition of human Caki1 cells incubated for 48 hrs by sulforhodamine B assay; format: functional, cell-based; details: CAKI-1, 48 h
U-251 [2] = assay: Growth inhibition of human U251 cells assessed as cell growth at 1 uM incubated for 48 hrs by sulforhodamine B assay relative to control; format: functional; details: U-251, 48 h, read-out: Activity
IGROV-1 [3] = assay: Growth inhibition of human IGROV1 cells assessed as cell growth at 0.1 uM incubated for 48 hrs by sulforhodamine B assay relative to control; format: functional; details: IGROV-1, 48 h, read-out: Activity
BT-549 = assay: Growth inhibition of human BT549 cells assessed as cell growth at 0.01 uM incubated for 48 hrs by sulforhodamine B assay relative to control; format: functional; details: BT-549, 48 h, read-out: Activity
SNB-75 = assay: Growth inhibition of human SNB75 cells assessed as cell growth at 1 uM incubated for 48 hrs by sulforhodamine B assay relative to control; format: functional; details: SNB-75, 48 h, read-out: Activity
RXF 393 = assay: Growth inhibition of human RXF393 cells assessed as cell growth at 0.01 uM incubated for 48 hrs by sulforhodamine B assay relative to control; format: functional; details: RXF 393, 48 h, read-out: Activity
HCT-15 = assay: Growth inhibition of human HCT15 cells assessed as cell growth at 0.1 uM incubated for 48 hrs by sulforhodamine B assay relative to control; format: functional; details: HCT-15, 48 h, read-out: Activity
OVCAR-4 = assay: Growth inhibition of human OVCAR4 cells assessed as cell growth at 0.1 uM incubated for 48 hrs by sulforhodamine B assay relative to control; format: functional; details: OVCAR-4, 48 h, read-out: Activity
SK-MEL-2 = assay: Growth inhibition of human SK-MEL-2 cells assessed as cell growth at 10 uM incubated for 48 hrs by sulforhodamine B assay relative to control; format: functional; details: SK-MEL-2, 48 h, read-out: Activity
NCI/ADR-RES [4] = assay: Growth inhibition of human NCI/ADR-RES cells assessed as cell growth at 100 uM incubated for 48 hrs by sulforhodamine B assay relative to control; format: functional; details: read-out: Activity
KM12 [5] = assay: Growth inhibition of human KM12 cells incubated for 48 hrs by sulforhodamine B assay; format: functional, cell-based; details: KM12, 48 h
U-251 [6] = assay: Growth inhibition of human U251 cells assessed as cell growth at 100 uM incubated for 48 hrs by sulforhodamine B assay relative to control; format: functional; details: U-251, 48 h, read-out: Activity
NCI-H522 [7] = assay: Growth inhibition of human NCI-H522 cells assessed as cell growth at 10 uM incubated for 48 hrs by sulforhodamine B assay relative to control; format: functional; details: NCI-H522, 48 h, read-out: Activity
SF-295 = assay: Growth inhibition of human SF295 cells assessed as cell growth at 1 uM incubated for 48 hrs by sulforhodamine B assay relative to control; format: functional; details: SF-295, 48 h, read-out: Activity
IGROV-1 [8] = assay: Growth inhibition of human IGROV1 cells assessed as cell growth at 0.01 uM incubated for 48 hrs by sulforhodamine B assay relative to control; format: functional; details: IGROV-1, 48 h, read-out: Activity
NCI-H522 [9] = assay: Growth inhibition of human NCI-H522 cells assessed as cell growth at 1 uM incubated for 48 hrs by sulforhodamine B assay relative to control; format: functional; details: NCI-H522, 48 h, read-out: Activity
KM12 [10] = assay: Growth inhibition of human KM12 cells assessed as cell growth at 100 uM incubated for 48 hrs by sulforhodamine B assay relative to control; format: functional; details: KM12, 48 h, read-out: Activity
HT-29 = assay: Growth inhibition of human HT-29 cells assessed as cell growth at 10 uM incubated for 48 hrs by sulforhodamine B assay relative to control; format: functional; details: HT-29, 48 h, read-out: Activity
786-0 [11] = assay: Growth inhibition of human 786-0 cells assessed as cell growth at 0.1 uM incubated for 48 hrs by sulforhodamine B assay relative to control; format: functional; details: 786-0, 48 h, read-out: Activity
SK-MEL-28 [12] = assay: Growth inhibition of human SK-MEL-28 cells incubated for 48 hrs by sulforhodamine B assay; format: functional, cell-based; details: SK-MEL-28, 48 h
786-0 [13] = assay: Growth inhibition of human 786-0 cells assessed as cell growth at 0.01 uM incubated for 48 hrs by sulforhodamine B assay relative to control; format: functional; details: 786-0, 48 h, read-out: Activity
T47D = assay: Growth inhibition of human T47D cells assessed as cell growth at 0.1 uM incubated for 48 hrs by sulforhodamine B assay relative to control; format: functional; details: read-out: Activity
SK-MEL-28 [14] = assay: Growth inhibition of human SK-MEL-28 cells assessed as cell growth at 1 uM incubated for 48 hrs by sulforhodamine B assay relative to control; format: functional; details: SK-MEL-28, 48 h, read-out: Activity
SK-MEL-5 = assay: Growth inhibition of human SK-MEL-5 cells assessed as cell growth at 100 uM incubated for 48 hrs by sulforhodamine B assay relative to control; format: functional; details: SK-MEL-5, 48 h, read-out: Activity
SK-OV-3 [15] = assay: Growth inhibition of human SKOV3 cells assessed as cell growth at 100 uM incubated for 48 hrs by sulforhodamine B assay relative to control; format: functional; details: SK-OV-3, 48 h, read-out: Activity
SF-268 = assay: Growth inhibition of human SF268 cells incubated for 48 hrs by sulforhodamine B assay; format: functional, cell-based; details: SF-268, 48 h
UACC-257 = assay: Growth inhibition of human UACC257 cells assessed as cell growth at 1 uM incubated for 48 hrs by sulforhodamine B assay relative to control; format: functional; details: UACC-257, 48 h, read-out: Activity
SK-OV-3 [16] = assay: Growth inhibition of human SKOV3 cells assessed as cell growth at 0.1 uM incubated for 48 hrs by sulforhodamine B assay relative to control; format: functional; details: SK-OV-3, 48 h, read-out: Activity
M14 = assay: Growth inhibition of human M14 cells assessed as cell growth at 0.01 uM incubated for 48 hrs by sulforhodamine B assay relative to control; format: functional; details: M14, 48 h, read-out: Activity
K562 = assay: Growth inhibition of human K562 cells assessed as cell growth at 100 uM incubated for 48 hrs by sulforhodamine B assay relative to control; format: functional; details: K562, 48 h, read-out: Activity
IGROV-1 [17] = assay: Growth inhibition of human IGROV1 cells assessed as cell growth at 1 uM incubated for 48 hrs by sulforhodamine B assay relative to control; format: functional; details: IGROV-1, 48 h, read-out: Activity
[18] = read-out: LC50 (the source's name)
[19] = read-out: pLC50 (the source's name) (converted)

## O=C(Nc1cccc(-n2cc(-c3ccncc3)c(-c3cc(O)cc(Cl)c3)n2)c1)Nc1ccc(Cl)c(C(F)(F)F)c1
NCI/ADR-RES [1]
  growth at 0.01 µM: 96%
CAKI-1; read-out: GI50
  GI50: 2.53 µM
CAKI-1; [18]
  CC50: > 100 µM
CAKI-1; read-out: TGI
  TGI: 78.7 µM
CAKI-1; read-out: pGI50 (converted)
  GI50: 2.69 µM
CAKI-1; [19]
  CC50: > 100 µM
CAKI-1; read-out: pTGI (converted)
  TGI: 7.94 µM
U-251 [2]
  growth at 1 µM: 56%
IGROV-1 [3]
  growth at 0.1 µM: 98%
BT-549
  growth at 0.01 µM: 102%
SNB-75
  growth at 1 µM: 54%
RXF 393
  growth at 0.01 µM: 93%
HCT-15
  growth at 0.1 µM: 88%
OVCAR-4
  growth at 0.1 µM: 105%
SK-MEL-2
  growth at 10 µM: -38%
NCI/ADR-RES [4]
  growth at 100 µM: -15%
KM12 [5]; read-out: GI50
  GI50: 2.5 µM
KM12 [5]; [18]
  CC50: 47.2 µM
KM12 [5]; read-out: TGI
  TGI: 90.6 µM
KM12 [5]; read-out: pGI50 (converted)
  GI50: 2.57 µM
KM12 [5]; [19]
  CC50: 46.8 µM
KM12 [5]; read-out: pTGI (converted)
  TGI: 9.77 µM
U-251 [6]
  growth at 100 µM: -84%
NCI-H522 [7]
  growth at 10 µM: -16%
SF-295
  growth at 1 µM: 91%
IGROV-1 [8]
  growth at 0.01 µM: 94%
NCI-H522 [9]
  growth at 1 µM: 51%
KM12 [10]
  growth at 100 µM: -74%
HT-29
  growth at 10 µM: 35.3%
786-0 [11]
  growth at 0.1 µM: 95%
SK-MEL-28 [12]; read-out: GI50
  GI50: 2.01 µM
SK-MEL-28 [12]; [18]
  CC50: 25.5 µM
SK-MEL-28 [12]; read-out: TGI
  TGI: 62 µM
SK-MEL-28 [12]; read-out: pGI50 (converted)
  GI50: 2 µM
SK-MEL-28 [12]; [19]
  CC50: 26.3 µM
SK-MEL-28 [12]; read-out: pTGI (converted)
  TGI: 6.17 µM
786-0 [13]
  growth at 0.01 µM: 98%
T47D
  growth at 0.1 µM: 90%
SK-MEL-28 [14]
  growth at 1 µM: 81%
SK-MEL-5
  growth at 100 µM: -97%
SK-OV-3 [15]
  growth at 100 µM: -15%
SF-268; read-out: GI50
  GI50: 3.1 µM
SF-268; [18]
  CC50: > 100 µM
SF-268; read-out: TGI
  TGI: 18 µM
SF-268; read-out: pGI50 (converted)
  GI50: 3.09 µM
SF-268; [19]
  CC50: > 100 µM
SF-268; read-out: pTGI (converted)
  TGI: 15.8 µM
UACC-257
  growth at 1 µM: 58%
SK-OV-3 [16]
  growth at 0.1 µM: 104%
M14
  growth at 0.01 µM: 97%
K562
  growth at 100 µM: -9%
IGROV-1 [17]
  growth at 1 µM: 113%

## COc1cc(Cl)cc(-c2nn(-c3cccc(NC(=O)Nc4cc(C(F)(F)F)cc(C(F)(F)F)c4)c3)cc2-c2ccncc2)c1
NCI/ADR-RES [1]
  growth at 0.01 µM: 99%
CAKI-1
  IC50: 0.42 µM
CAKI-1; read-out: GI50
  GI50: 0.42 µM
CAKI-1; read-out: TGI
  TGI: 4.75 µM
CAKI-1; read-out: pGI50 (converted)
  GI50: 0.417 µM
CAKI-1; [19]
  CC50: 61.7 µM
CAKI-1; read-out: pTGI (converted)
  TGI: 4.79 µM
U-251 [2]
  growth at 1 µM: 11%
IGROV-1 [3]
  growth at 0.1 µM: 104%
BT-549
  growth at 0.01 µM: 94%
SNB-75
  growth at 1 µM: 48%
RXF 393
  growth at 0.01 µM: 96%
HCT-15
  growth at 0.1 µM: 90%
OVCAR-4
  growth at 0.1 µM: 97%
SK-MEL-2
  growth at 10 µM: -38.1%
NCI/ADR-RES [4]
  growth at 100 µM: -12%
KM12 [5]
  IC50: 0.51 µM
KM12 [5]; read-out: GI50
  GI50: 0.606 µM
KM12 [5]; [18]
  CC50: 0.0279 µM
KM12 [5]; read-out: TGI
  TGI: 2.75 µM
KM12 [5]; read-out: pGI50 (converted)
  GI50: 0.501 µM
KM12 [5]; [19]
  CC50: 28.2 µM
KM12 [5]; read-out: pTGI (converted)
  TGI: 2.75 µM
U-251 [6]
  growth at 100 µM: -92%
NCI-H522 [7]
  growth at 10 µM: -15.6%
SF-295
  growth at 1 µM: 12%
IGROV-1 [8]
  growth at 0.01 µM: 103%
NCI-H522 [9]
  growth at 1 µM: 18%
KM12 [10]
  growth at 100 µM: -83%
HT-29
  growth at 10 µM: 3.93%
786-0 [11]
  growth at 0.1 µM: 92%
SK-MEL-28 [12]
  IC50: 0.9 µM
SK-MEL-28 [12]; read-out: GI50
  GI50: 0.9 µM
SK-MEL-28 [12]; read-out: TGI
  TGI: 4.93 µM
SK-MEL-28 [12]; read-out: pGI50 (converted)
  GI50: 0.891 µM
SK-MEL-28 [12]; [19]
  CC50: 69.2 µM
SK-MEL-28 [12]; read-out: pTGI (converted)
  TGI: 4.9 µM
786-0 [13]
  growth at 0.01 µM: 96%
T47D
  growth at 0.1 µM: 96%
SK-MEL-28 [14]
  growth at 1 µM: 46%
SK-MEL-5
  growth at 100 µM: -70%
SK-OV-3 [15]
  growth at 100 µM: -73%
SF-268
  IC50: 0.62 µM
SF-268; read-out: GI50
  GI50: 0.618 µM
SF-268; [18]
  CC50: 0.0307 µM
SF-268; read-out: TGI
  TGI: 3.25 µM
SF-268; read-out: pGI50 (converted)
  GI50: 0.617 µM
SF-268; [19]
  CC50: 30.9 µM
SF-268; read-out: pTGI (converted)
  TGI: 3.24 µM
UACC-257
  growth at 1 µM: 23%
SK-OV-3 [16]
  growth at 0.1 µM: 105%
M14
  growth at 0.01 µM: 96%
K562
  growth at 100 µM: -42%
IGROV-1 [17]
  growth at 1 µM: 33%
